# Measurements taken from US9855243B2, “Topical anti-inflammatory pharmaceutical composition with zileuton cream formulation” (Qurient Co., Ltd., priority 2013, dated 2018).
# Several values for one entry are separate records, joined by “and”; a condition that tells them apart may be missing. Equal entries are not always repeated.
# Tests used:
# [1] = Screening of excipient suitability: zileuton with excipient, stability at 50° C.; type: physicochemical
# Method: Suitability of components generally used in cream formulation with respect to zieluton was screened, prior to preparing a zieluton cream formulation. […] That is, the stability of excipient at 50° C. was tested.
# [2] = Solubility of zileuton in solvents at 25° C.(RT); type: physicochemical
# From the text: Furthermore, the suitability of other various solvents for solubilizing zileuton was screened. […] Especially, hydrophilics solvents such as alcohols may be preferably used.
# [3] = tested on: Delayed Type Hypersensitivity Reaction in mouse induced by DNFB; assay: Mouse atopic dermatitis model, DNFB-induced ear inflammation; type: in vivo, BALB/c mouse; conditions: ear tissues after day 5 stimulation
# Method: According to an embodiment of the present invention, the medical effect of the cream type topical pharmaceutical composition has been verified in a Delayed Type Hypersensitivity Reaction in mouse induced by DNFB. The test article was applied to a mouse's skin 3 times a day, and then the medical effect was measured. Furthermore, an excess amount of the zileuton was injected using a non-optimized test vehicle, acetone.
# For this purpose, BALB/c mice were divided into […], each consisting of 10 mice. The groups were divided into a vehicle (acetone), positive control group (dexamethasone 0.05 mg/ear; Dex), and zileuton groups ([…]). And the zileuton groups were divided into cases where acetone (1 mg/ear) and the cream formulation of […] (0.2 mg/ear and 0.02 mg/ear) were used, respectively.
# Then, on day 5, 20 μl of 0.3% DNFB was applied once again to cause inflammation in the ears. Then, dexamethasone and zileuton dissolved in acetone vehicle were applied to the ears at 1 hour, 6 hours, and 23 hours after the stimulation on day 5. Thicknesses of the ears were measured at 24 hours after the stimulation on day 5, and then ear tissues were taken for histopathological observation.
# [4] = tested on: inflammation reaction of asthma; conditions: clinical trials; oral drug; cited from earlier work
# [5] = tested on: atopic dermatitis symptoms; conditions: clinical trials; oral administration; cited from earlier work
# [6] = tested on: liver functions of the patient; conditions: oral administration; cited from earlier work
# [7] = Zileuton API alone, 2 weeks, 50° C.
# [8] = Zileuton API alone, 4 weeks, 50° C.
# [9] = with Carbomer 1:1, 2 weeks, 50° C.
# [10] = with Carbomer 1:1, 4 weeks, 50° C.
# [11] = with Ceteareth-20 1:1, 2 weeks, 50° C.
# [12] = with Ceteareth-20 1:1, 4 weeks, 50° C.
# [13] = with Hypromellose (HPMC) 1:1, 2 weeks, 50° C.
# [14] = with Hypromellose (HPMC) 1:1, 4 weeks, 50° C.
# [15] = with Hypromellose (HPMC) 1:1, Day 0
# [16] = with Phospholipon 90H 1:1, 2 weeks, 50° C.
# [17] = with Phospholipon 90H 1:1, 4 weeks, 50° C.
# [18] = with Phospholipon 90H 1:1, Day 0
# [19] = with Stearyl alcohol 1:1, 2 weeks, 50° C.
# [20] = with Stearyl alcohol 1:1, 4 weeks, 50° C.
# [21] = with Stearyl alcohol 1:1, Day 0
# [22] = with Titanium dioxide 1:1, 2 weeks, 50° C.
# [23] = with Titanium dioxide 1:1, 4 weeks, 50° C.
# [24] = with Titanium dioxide 1:1, Day 0
# [25] = with White wax 1:1, 2 weeks, 50° C.
# [26] = with White wax 1:1, 4 weeks, 50° C.
smiles,measurement,setting,value
"CC(c1cc2ccccc2s1)N(O)C(N)=O (racemic) [Zileuton, (±)-1-(1-(benzo [b]thiophen-2-yl)ethyl)-1-hydroxyurea]",Appearance,[1]; [7],White
same,TRS. %,[1]; [7],3.311% and 3.006%
same,Appearance,[1]; [8],White
same,TRS. %,[1]; [8],2.711% and 2.493%
same,TRS. %,"[1]; Zileuton API alone, Day 0",2.378%
same,Appearance,[1]; [9],White
same,TRS. %,[1]; [9],2.385% and 3.067%
same,Appearance,[1]; [10],White
same,TRS. %,[1]; [10],2.330% and 2.403%
same,Appearance,"[1]; with Carbomer 1:1, Day 0",White
same,TRS. %,"[1]; with Carbomer 1:1, Day 0",3.326%
same,Appearance,[1]; [11],White
same,TRS. %,[1]; [11],3.445% and 3.365%
same,Appearance,[1]; [12],White
same,TRS. %,[1]; [12],3.632% and 3.549%
same,Appearance,"[1]; with Ceteareth-20 1:1, Day 0",White
same,TRS. %,"[1]; with Ceteareth-20 1:1, Day 0",2.394%
same,Appearance,[1]; [13],White
same,TRS. %,[1]; [13],2.864% and 2.949%
same,Appearance,[1]; [14],White
same,TRS. %,[1]; [14],2.555% and 2.580%
same,Appearance,[1]; [15],White
same,TRS. %,[1]; [15],2.610%
same,Appearance,[1]; [16],White
same,TRS. %,[1]; [16],2.820% and 2.846%
same,Appearance,[1]; [17],White
same,TRS. %,[1]; [17],2.557% and 2.429%
same,Appearance,[1]; [18],White
same,TRS. %,[1]; [18],2.400%
same,Appearance,[1]; [19],White
same,TRS. %,[1]; [19],2.935% and 2.796%
same,Appearance,[1]; [20],White
same,TRS. %,[1]; [20],2.512% and 2.567%
same,Appearance,[1]; [21],White
same,TRS. %,[1]; [21],3.311%
same,Appearance,[1]; [22],White
same,TRS. %,[1]; [22],2.803% and 2.839%
same,Appearance,[1]; [23],White
same,TRS. %,[1]; [23],2.507% and 2.504%
same,Appearance,[1]; [24],White
same,TRS. %,[1]; [24],2.344%
same,Appearance,[1]; [25],White
same,TRS. %,[1]; [25],2.863% and 2.843%
same,Appearance,[1]; [26],White
same,TRS. %,[1]; [26],2.459% and 2.381%
same,Appearance,"[1]; with White wax 1:1, Day 0",White
same,TRS. %,"[1]; with White wax 1:1, Day 0",2.372%
same,Zileuton Solubility at RT (% w/w),[2]; in Caprylocaproyl Polyoxyl-8 Glycerides/Labrasol,10.81-11.42 % w/w
same,Zileuton Solubility at RT (% w/w),[2]; in Castor Oil,<0.16 % w/w
same,Zileuton Solubility at RT (% w/w),[2]; in Cyclomethicone,<0.06 % w/w
same,Zileuton Solubility at RT (% w/w),[2]; in Diethylene Glycol Monoethyl Ether/Transcutol P,17.11-17.62 % w/w
same,Zileuton Solubility at RT (% w/w),[2]; in Dimethicone,<0.06 % w/w
same,Zileuton Solubility at RT (% w/w),[2]; in Isopropyl Myristate,<0.20 % w/w
same,Zileuton Solubility at RT (% w/w),[2]; in Light Mineral Oil,<0.04 % w/w
same,Zileuton Solubility at RT (% w/w),[2]; in Medium Chain Triglycerides,<0.21 % w/w
same,Zileuton Solubility at RT (% w/w),[2]; in Olive Oil,<0.07 % w/w
same,Zileuton Solubility at RT (% w/w),[2]; in Polyglyceryl-6 Dioleate,<0.06 % w/w
same,Zileuton Solubility at RT (% w/w),[2]; in Polyglyceryl-10 Mono/Dioleate/Caprol PGE-860,<0.16 % w/w
same,Zileuton Solubility at RT (% w/w),[2]; in Polyoxyethylene (20) Sorbitan Monolaurate/Tween 20,8.42-9.24 % w/w
same,Zileuton Solubility at RT (% w/w),[2]; in Polyoxyl 40 Hydrogenated Castor Oil/Kolliphor RH40,<0.37 % w/w
same,Zileuton Solubility at RT (% w/w),[2]; in Propylene Glycol Dicaprylocaprate,<0.20 % w/w
same,Zileuton Solubility at RT (% w/w),[2]; in Safflower Oil,<0.07 % w/w
same,Zileuton Solubility at RT (% w/w),[2]; in Squalane,<0.04 % w/w
same,Zileuton Solubility at RT (% w/w),[2]; in Triacetin,0.50-0.72 % w/w
same,"Histopathological observation, anti-inflammation function",[3],excellent anti-inflammation function
same,Anti-inflammatory effect in asthma,[4],effective anti-inflammatory pharmaceutical effect
same,Effect on atopic dermatitis symptoms,[5],alleviates atopic dermatitis symptoms
same,Hepatotoxicity,[6],significant hepatotoxicity
